Publication PMC6009944, “Synthesis, antitumour activities and molecular docking of thiocarboxylic acid ester-based NSAID scaffolds: COX-2 inhibition and mechanistic studies” (Journal of Enzyme Inhibition and Medicinal Chemistry, 2018)
Where two headings read alike, the source gives them in different places.

Key:
[1] = biological target: T1, cSrc (Homo sapiens, UniProt P12931); assay: Kinase inhibition assay (Kinase-Glo Plus), cSrc; assay type: biochemical; conditions: for inhibition at 10 µM: read-out: % inhibition, 10 μM compound
T1 construct: purchased BPS Bioscience
T1 sequence (P12931 whole entry): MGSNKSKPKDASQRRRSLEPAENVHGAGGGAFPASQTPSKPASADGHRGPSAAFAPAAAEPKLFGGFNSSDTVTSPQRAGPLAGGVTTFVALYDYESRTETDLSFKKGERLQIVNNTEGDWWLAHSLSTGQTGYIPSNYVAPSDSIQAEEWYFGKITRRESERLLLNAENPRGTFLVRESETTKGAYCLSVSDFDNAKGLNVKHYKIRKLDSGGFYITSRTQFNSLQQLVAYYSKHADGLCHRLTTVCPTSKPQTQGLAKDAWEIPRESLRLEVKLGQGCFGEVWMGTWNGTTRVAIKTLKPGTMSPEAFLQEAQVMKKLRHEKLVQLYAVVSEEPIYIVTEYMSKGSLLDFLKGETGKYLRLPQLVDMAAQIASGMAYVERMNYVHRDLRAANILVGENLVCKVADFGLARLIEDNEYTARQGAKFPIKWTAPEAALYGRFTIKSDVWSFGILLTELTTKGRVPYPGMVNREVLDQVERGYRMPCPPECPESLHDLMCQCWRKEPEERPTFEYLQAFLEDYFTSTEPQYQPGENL
Description: (§1) Luminescence signal was measured using a BioTek Synergy 2 microplate reader.

[2] = tested on: HepG2; assay: MTT antitumor assay, HepG2; conditions: Homo sapiens, HepG2, read-out: IC50 (μM) HepG2
Description: (§2) The evaluation of the antitumour activity was performed using tetrazolium salt MTT (3–(4,5-dimethyl-2-thiazolyl)-2,5-diphenyl-2H-tetrazolium bromide) assay as reported[47–50].

[3] = tested on: MCF-7; assay: MTT antitumor assay, MCF-7
Description: as §2

[4] = tested on: Caco-2; assay: MTT antitumor assay, Caco-2; conditions: Homo sapiens, Caco-2, read-out: IC50 (μM) Caco-2
Description: as §2

[5] = tested on: HCT-116; assay: MTT antitumor assay, HCT-116
Description: as §2

[6] = biological target: T2, EGFR (Homo sapiens, UniProt P00533); assay: Kinase inhibition assay (Kinase-Glo Plus), EGFR; assay type: biochemical; conditions: read-out: % inhibition of 10 μM EGFR; 10 μM compound
T2 construct: purchased BPS Bioscience
T2 sequence (P00533 25-1210): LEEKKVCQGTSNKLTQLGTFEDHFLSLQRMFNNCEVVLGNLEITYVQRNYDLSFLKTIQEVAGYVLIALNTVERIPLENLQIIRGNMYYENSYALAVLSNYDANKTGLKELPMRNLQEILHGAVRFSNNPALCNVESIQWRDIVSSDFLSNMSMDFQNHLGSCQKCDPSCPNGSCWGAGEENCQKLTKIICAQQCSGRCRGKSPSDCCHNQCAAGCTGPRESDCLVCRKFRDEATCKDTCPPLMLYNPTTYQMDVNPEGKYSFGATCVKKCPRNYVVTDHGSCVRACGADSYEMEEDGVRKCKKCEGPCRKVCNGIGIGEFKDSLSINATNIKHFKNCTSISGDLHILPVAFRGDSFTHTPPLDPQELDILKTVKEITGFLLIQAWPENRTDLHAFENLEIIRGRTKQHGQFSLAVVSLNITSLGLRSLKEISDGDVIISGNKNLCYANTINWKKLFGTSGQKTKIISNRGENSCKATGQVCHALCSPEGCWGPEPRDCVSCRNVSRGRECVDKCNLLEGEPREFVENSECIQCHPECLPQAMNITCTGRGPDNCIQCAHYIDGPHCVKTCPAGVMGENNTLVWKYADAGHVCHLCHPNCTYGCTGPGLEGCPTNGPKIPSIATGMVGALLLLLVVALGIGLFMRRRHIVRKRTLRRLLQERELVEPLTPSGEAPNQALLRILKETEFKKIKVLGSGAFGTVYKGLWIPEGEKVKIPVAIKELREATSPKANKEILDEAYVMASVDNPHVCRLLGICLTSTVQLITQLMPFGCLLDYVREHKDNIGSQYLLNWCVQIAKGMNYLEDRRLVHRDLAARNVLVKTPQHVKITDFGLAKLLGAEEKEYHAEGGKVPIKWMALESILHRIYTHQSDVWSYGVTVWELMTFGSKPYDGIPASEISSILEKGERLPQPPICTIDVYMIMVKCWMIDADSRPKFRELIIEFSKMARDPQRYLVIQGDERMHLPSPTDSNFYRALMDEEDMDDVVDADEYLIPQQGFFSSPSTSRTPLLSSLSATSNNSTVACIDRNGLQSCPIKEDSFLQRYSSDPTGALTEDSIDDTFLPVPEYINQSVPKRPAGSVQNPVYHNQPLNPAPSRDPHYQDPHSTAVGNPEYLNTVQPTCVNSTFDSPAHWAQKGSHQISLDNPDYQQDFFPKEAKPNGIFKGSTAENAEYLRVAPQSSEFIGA
Description: as §1

[7] = biological target: T3, HER2 (Homo sapiens, UniProt P04626); assay: Kinase inhibition assay (Kinase-Glo Plus), HER2; assay type: biochemical; conditions: read-out: % inhibition of 10 μM HER2; 10 μM compound
T3 construct: purchased BPS Bioscience
T3 sequence (P04626 23-1255): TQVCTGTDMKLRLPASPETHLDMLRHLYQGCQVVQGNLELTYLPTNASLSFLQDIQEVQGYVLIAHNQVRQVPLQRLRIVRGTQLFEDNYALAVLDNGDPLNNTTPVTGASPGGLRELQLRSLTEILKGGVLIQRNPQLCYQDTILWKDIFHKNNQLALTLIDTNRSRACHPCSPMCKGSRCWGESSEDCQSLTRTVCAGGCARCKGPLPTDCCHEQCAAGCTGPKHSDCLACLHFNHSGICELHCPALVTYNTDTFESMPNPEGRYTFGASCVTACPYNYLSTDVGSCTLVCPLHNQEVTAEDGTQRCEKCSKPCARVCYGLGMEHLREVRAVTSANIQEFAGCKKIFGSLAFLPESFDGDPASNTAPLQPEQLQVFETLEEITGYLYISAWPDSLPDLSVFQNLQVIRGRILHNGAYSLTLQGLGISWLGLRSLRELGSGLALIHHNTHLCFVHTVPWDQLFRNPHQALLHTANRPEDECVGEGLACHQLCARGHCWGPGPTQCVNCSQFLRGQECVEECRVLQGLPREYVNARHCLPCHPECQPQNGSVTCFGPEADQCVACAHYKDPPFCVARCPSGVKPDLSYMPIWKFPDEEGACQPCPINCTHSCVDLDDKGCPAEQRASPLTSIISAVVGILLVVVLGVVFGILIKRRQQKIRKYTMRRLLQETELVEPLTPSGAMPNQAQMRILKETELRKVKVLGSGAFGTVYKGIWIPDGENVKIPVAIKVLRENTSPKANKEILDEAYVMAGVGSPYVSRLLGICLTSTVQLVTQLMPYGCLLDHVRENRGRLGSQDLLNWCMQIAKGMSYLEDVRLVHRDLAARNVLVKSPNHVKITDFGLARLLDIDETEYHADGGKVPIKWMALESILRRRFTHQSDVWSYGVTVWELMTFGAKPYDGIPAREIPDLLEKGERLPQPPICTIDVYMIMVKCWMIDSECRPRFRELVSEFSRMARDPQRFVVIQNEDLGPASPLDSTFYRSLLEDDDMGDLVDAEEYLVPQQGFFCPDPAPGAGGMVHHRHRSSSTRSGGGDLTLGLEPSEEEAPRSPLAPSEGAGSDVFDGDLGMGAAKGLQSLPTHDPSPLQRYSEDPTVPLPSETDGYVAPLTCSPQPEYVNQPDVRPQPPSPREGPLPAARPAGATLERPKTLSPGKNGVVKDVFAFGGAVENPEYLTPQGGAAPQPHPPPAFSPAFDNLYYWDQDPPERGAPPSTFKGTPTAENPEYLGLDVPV
Description: as §1

[8] = biological target: T4, HER4 (Homo sapiens, UniProt Q15303); assay: Kinase inhibition assay (Kinase-Glo Plus), HER4; assay type: biochemical; conditions: read-out: % inhibition of 10 μM HER4; 10 μM compound
T4 construct: purchased BPS Bioscience
T4 sequence (Q15303 26-1308): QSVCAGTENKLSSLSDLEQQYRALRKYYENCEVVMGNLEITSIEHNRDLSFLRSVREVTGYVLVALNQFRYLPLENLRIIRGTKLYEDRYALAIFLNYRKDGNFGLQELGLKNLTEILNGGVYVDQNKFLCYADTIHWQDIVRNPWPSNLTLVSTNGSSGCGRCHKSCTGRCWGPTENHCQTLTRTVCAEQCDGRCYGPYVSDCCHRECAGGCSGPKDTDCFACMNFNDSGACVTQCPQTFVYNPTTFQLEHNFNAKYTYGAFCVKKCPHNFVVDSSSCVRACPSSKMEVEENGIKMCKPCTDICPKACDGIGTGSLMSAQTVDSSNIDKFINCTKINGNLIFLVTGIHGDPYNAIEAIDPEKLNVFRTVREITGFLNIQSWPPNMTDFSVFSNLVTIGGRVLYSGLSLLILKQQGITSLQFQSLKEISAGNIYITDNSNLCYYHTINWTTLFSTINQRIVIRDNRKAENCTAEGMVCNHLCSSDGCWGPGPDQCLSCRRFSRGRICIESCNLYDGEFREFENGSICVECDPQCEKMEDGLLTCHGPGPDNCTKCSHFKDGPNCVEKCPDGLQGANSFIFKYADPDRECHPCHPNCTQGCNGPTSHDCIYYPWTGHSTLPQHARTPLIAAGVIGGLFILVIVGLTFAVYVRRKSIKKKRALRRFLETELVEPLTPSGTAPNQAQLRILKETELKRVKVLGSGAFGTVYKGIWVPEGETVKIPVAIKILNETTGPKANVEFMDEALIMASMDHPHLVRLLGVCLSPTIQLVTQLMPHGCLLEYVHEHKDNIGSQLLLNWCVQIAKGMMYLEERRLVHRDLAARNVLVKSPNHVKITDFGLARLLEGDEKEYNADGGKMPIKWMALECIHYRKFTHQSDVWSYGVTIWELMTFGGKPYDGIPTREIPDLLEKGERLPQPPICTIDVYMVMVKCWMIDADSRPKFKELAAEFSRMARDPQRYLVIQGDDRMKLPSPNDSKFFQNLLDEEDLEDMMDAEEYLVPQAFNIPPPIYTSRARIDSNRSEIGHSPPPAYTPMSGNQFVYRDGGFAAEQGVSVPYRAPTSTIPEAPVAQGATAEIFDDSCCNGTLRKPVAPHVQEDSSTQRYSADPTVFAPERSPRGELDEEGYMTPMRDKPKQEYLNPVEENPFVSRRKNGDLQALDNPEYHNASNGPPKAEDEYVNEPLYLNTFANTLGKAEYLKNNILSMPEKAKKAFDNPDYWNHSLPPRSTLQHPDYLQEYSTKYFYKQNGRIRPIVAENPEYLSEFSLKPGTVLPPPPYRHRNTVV
Description: as §1

[9] = biological target: T5, COX-1 (Ovis aries, UniProt P05979); assay: In vitro COX-1 enzyme inhibition assay (colorimetric kit)
T5 sequence (P05979 25-600): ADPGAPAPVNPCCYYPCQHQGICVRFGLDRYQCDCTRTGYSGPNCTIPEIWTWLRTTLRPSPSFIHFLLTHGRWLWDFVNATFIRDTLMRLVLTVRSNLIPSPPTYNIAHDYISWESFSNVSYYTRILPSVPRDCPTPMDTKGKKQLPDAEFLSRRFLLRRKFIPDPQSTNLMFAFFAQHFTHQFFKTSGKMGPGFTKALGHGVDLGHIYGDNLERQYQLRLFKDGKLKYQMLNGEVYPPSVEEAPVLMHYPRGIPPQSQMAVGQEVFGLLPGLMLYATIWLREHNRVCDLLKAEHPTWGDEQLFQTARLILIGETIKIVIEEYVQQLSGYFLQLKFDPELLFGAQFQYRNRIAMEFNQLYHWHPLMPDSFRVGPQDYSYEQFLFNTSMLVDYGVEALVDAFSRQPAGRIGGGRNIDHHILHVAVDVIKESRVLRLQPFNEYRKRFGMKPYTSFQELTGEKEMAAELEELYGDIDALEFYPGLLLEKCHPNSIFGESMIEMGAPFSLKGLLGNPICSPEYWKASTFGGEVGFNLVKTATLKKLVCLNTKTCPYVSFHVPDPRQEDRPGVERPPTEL
Description: (§3) IC50 (represented in μM) (The half-maximal inhibitor concentration) values were determined[56–59], and the SI values were calculated[51]^,[52]^,[55] as IC50 (COX-1)/IC50 (COX-2).

[10] = biological target: T6, COX-2 (Ovis aries, UniProt P79208); assay: In vitro COX-2 enzyme inhibition assay (colorimetric kit); conditions: for SI, selectivity index (COX-1 IC50/COX-2 IC50): COX-2 selectivity over COX-1
T6 sequence (P79208 17-603): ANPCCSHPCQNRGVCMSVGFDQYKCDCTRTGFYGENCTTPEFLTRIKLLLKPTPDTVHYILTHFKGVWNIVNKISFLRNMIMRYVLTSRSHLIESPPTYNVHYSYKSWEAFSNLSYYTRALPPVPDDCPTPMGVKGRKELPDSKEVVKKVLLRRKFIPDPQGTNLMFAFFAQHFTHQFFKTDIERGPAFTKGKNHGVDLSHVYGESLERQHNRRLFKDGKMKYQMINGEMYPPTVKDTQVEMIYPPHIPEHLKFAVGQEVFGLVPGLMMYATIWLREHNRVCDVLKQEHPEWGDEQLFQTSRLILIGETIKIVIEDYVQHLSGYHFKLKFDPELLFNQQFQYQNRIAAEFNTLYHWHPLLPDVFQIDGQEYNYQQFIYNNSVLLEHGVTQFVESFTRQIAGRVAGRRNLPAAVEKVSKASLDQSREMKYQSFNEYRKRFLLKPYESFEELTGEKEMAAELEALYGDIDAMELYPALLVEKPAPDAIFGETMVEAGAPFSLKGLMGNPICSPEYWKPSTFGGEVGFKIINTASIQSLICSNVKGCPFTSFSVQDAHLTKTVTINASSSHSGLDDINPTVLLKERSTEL
Description: as §3

[11] = Homo sapiens, MCF7, read-out: IC50 (μM) MCF-7, human breast adenocarcinoma cell line, MTT, mean ± SD, n = 3
[12] = Homo sapiens, HCT-116, read-out: IC50 (μM) HCT-116, human colon cancer cell line, MTT, mean ± SD, n = 3
[13] = read-out: IC50 (μM) MCF-7, human breast adenocarcinoma cell line, MTT, mean ± SD, n = 3

Compound	inhibition at 1 µM ([1]; read-out: % inhibition cSrc)	melting point	IC50 [2]	IC50 [3, 11]	IC50 [4]	IC50 [5, 12]	IC50 [3, 13]	IC50 ([3]; Homo sapiens, MCF7, read-out: IC50 (μM) MCF-7)	IC50 ([5]; Homo sapiens, HCT-116, read-out: IC50 (μM) HCT-116)	inhibition at 10 µM [6]	inhibition at 10 µM [7]	inhibition at 10 µM [8]	inhibition at 10 µM [1]	IC50 [9]	IC50 [10]	SI, selectivity index (COX-1 IC50/COX-2 IC50) [10]	IC50 ([5]; read-out: IC50 (μM) HCT-116, human colon cancer cell line, MTT, mean ± SD, n = 3)
CN[C@@H]1C[C@H]2O[C@@](C)([C@@H]1OC)n1c3ccccc3c3c4c(c5c6ccccc6n2c5c31)C(=O)NC4 [Staurosporine, reference compound]	100%	–	–	–	–	–	–	–	–	–	–	–	–	–	–	–	–
CC(=O)Oc1ccccc1C(=O)Sc1ccccc1 [4a, 2-[(Phenylthio)carbonyl]phenyl acetate]	–	72 to 73 °C	71.1 ± 4.11 µM	73.7 ± 3.92 µM	80.2 ± 4.5 µM	85.4 ± 4.57 µM	–	–	–	–	–	–	–	–	–	–	–
O=C(Cc1ccccc1Nc1c(Cl)cccc1Cl)SC1CCCCC1 [6b, S-cyclohexyl-2–(2-((2,6-dichlorophenyl)amino)phenyl)ethanethioate]	–	88 to 90 °C	> 100 µM	–	> 100 µM	91.2 ± 4.96 µM	95.3 ± 4.96 µM	–	–	–	–	–	–	–	–	–	–
Cc1ccc(-c2cc(C(F)(F)F)nn2-c2ccc(S(N)(=O)=O)cc2)cc1 [Celecoxib, reference compound]	–	–	25.6 ± 2.3 µM	–	42.7 ± 3.1 µM	–	–	31.3 ± 2.5 µM	29.5 ± 2.1 µM	–	–	–	–	–	–	–	–
O=c1[nH]cc(F)c(=O)[nH]1 [5-FU, 5-Fluorouracil, reference compound]	–	–	7.91 ± 0.28 µM	5.43 ± 0.2 µM	6.85 ± 0.34 µM	5.32 ± 0.17 µM	–	–	–	–	–	–	–	–	–	–	–
COc1ccc2cc(C(C)C(=O)Sc3ccccc3)ccc2c1 [5a, S-phenyl-(S)-2–(6-methoxynaphthalen-2-yl)propanethioate]	–	115 to 117 °C	36.8 ± 2.7 µM	42.6 ± 2.67 µM	63.8 ± 3.58 µM	51.2 ± 3.71 µM	–	–	–	–	–	–	–	–	–	–	–
CC(C(=O)SC1CCCCC1)c1cccc(C(=O)c2ccccc2)c1 (stereo not drawn) [2b, S-cyclohexyl-2–(3-benzoylphenyl)propanethioate]	–	69 to 70 °C	9.36 ± 0.79 µM	11.9 ± 1.13 µM	21.7 ± 1.9 µM	18.7 ± 1.5 µM	–	–	–	0%	1%	5%	4%	> 50 µM	0.66 ± 0.052 µM	>75.8	–
O=C(Cc1ccccc1Nc1c(Cl)cccc1Cl)Sc1ccccc1 [6a, S-phenyl-2–(2-((2,6-dichlorophenyl)amino)phenyl)ethanethioate]	–	101 to 102 °C	26.8 ± 2.08 µM	6.11 ± 0.31 µM	10.2 ± 0.92 µM	46.9 ± 3.23 µM	–	–	–	6%	1%	5%	5%	> 50 µM	0.25 ± 0.017 µM	>200.0	–
CC1=C(CC(=O)SC2CCCCC2)c2cc(F)ccc2C1=Cc1ccc([S+](C)[O-])cc1 (stereo not drawn) [8b, S-cyclohexyl-2–(5-fluoro-2-methyl-1–(4-(methylsulfinyl)benzylidene)-1H-inden-3-yl)ethanethioate]	–	121 to 122 °C	22.3 ± 1.96 µM	34.1 ± 2.07 µM	43.8 ± 2.96 µM	46.7 ± 2.93 µM	–	–	–	–	–	–	–	> 50 µM	0.6 ± 0.055 µM	>83.3	–
CC(C)Cc1ccc(C(C)C(=O)SC2CCCCC2)cc1 (stereo not drawn) [1b, S-cyclohexyl-2–(4-isobutylphenyl)propanethioate]	–	–	> 100 µM	> 100 µM	> 100 µM	97.6 ± 5.12 µM	–	–	–	–	–	–	–	–	–	–	–
CC1=C(CC(=O)Sc2ccccc2)c2cc(F)ccc2C1=Cc1ccc([S+](C)[O-])cc1 (stereo not drawn) [8a, S-phenyl-2–(5-fluoro-2-methyl-1–(4-(methylsulfinyl)benzylidene)-1H-inden-3-yl)ethanethioate]	–	–	7.35 ± 0.34 µM	8.62 ± 0.72 µM	15.4 ± 1.37 µM	9.73 ± 0.85 µM	–	–	–	6%	0%	10%	4%	> 50 µM	0.2 ± 0.016 µM	>250.0	–
CC(=O)Oc1ccccc1C(=O)SC1CCCCC1 [4b, 2-[(Cyclohexylthio)carbonyl]phenyl acetate]	–	55 to 56 °C	63.6 ± 3.91 µM	46.5 ± 2.84 µM	68.8 ± 3.79 µM	76.5 ± 4.22 µM	–	–	–	–	–	–	–	–	–	–	–
CC(C(=O)Sc1ccccc1)c1cccc(C(=O)c2ccccc2)c1 (stereo not drawn) [2a, S-phenyl-2–(3-benzoylphenyl)propanethioate]	–	96 to 98 °C	59.8 ± 3.55 µM	–	72.2 ± 4.06 µM	–	48.1 ± 3.15 µM	–	–	–	–	–	–	–	–	–	61.3 ± 3.97 µM
CC(C)Cc1ccc(C(C)C(=O)Sc2ccccc2)cc1 (stereo not drawn) [1a, S-phenyl-2–(4-isobutylphenyl)propanethioate]	–	–	85.1 ± 4.53 µM	80.4 ± 4.58 µM	94.8 ± 4.92 µM	89.6 ± 4.68 µM	–	–	–	–	–	–	–	–	–	–	–
COc1ccc2c(c1)c(CC(=O)Sc1ccccc1)c(C)n2C(=O)c1ccc(Cl)cc1 [7a, S-phenyl-2–(1-(4-chlorobenzoyl)-5-methoxy-2-methyl-1H-indol-3-yl)ethanethioate]	–	133 to 135 °C	7.86 ± 0.39 µM	9.65 ± 0.96 µM	18.1 ± 1.73 µM	14.6 ± 1.24 µM	–	–	–	0%	0%	4%	1%	> 50 µM	0.22 ± 0.019 µM	>227.3	–
CC(C(=O)SC1CCCCC1)c1ccc(-c2ccccc2)c(F)c1 (stereo not drawn) [3b, S-cyclohexyl-2–(2-fluoro-[1,1′-biphenyl]-4-yl)propanethioate]	–	90 to 92 °C	10.5 ± 0.98 µM	13.7 ± 1.19 µM	26.8 ± 2.17 µM	23.8 ± 1.8 µM	–	–	–	0%	0%	3%	3%	> 50 µM	0.69 ± 0.057 µM	>72.5	–
CC(C(=O)Sc1ccccc1)c1ccc(-c2ccccc2)c(F)c1 (stereo not drawn) [3a, S-phenyl-2–(2-fluoro-[1,1′-biphenyl]-4-yl)propanethioate]	–	85 to 86 °C	68.8 ± 3.87 µM	63.6 ± 3.62 µM	76.5 ± 4.38 µM	78.1 ± 4.08 µM	–	–	–	–	–	–	–	–	–	–	–
CN(C)C/C=C/C(=O)Nc1cc2c(Nc3ccc(F)c(Cl)c3)ncnc2cc1O[C@H]1CCOC1 [Afatinib, reference compound]	–	–	5.4 ± 0.25 µM	7.1 ± 0.49 µM	7.7 ± 0.57 µM	6.2 ± 0.67 µM	–	–	–	–	–	–	–	–	–	–	–
COc1ccc2c(c1)c(CC(=O)SC1CCCCC1)c(C)n2C(=O)c1ccc(Cl)cc1 [7b, S-cyclohexyl-2–(1-(4-chlorobenzoyl)-5-methoxy-2-methyl-1H-indol-3-yl)ethanethioate]	–	97 to 98 °C	14.9 ± 1.38 µM	17.1 ± 1.4 µM	29.1 ± 2.45 µM	34 ± 2.25 µM	–	–	–	1%	0%	3%	3%	> 50 µM	0.49 ± 0.044 µM	>102.0	–
COc1ccc2cc(C(C)C(=O)SC3CCCCC3)ccc2c1 [5b, S-cyclohexyl-(S)-2–(6-methoxynaphthalen-2-yl)propanethioate]	–	105 to 106 °C	19.7 ± 1.57 µM	28.9 ± 1.58 µM	35.6 ± 2.62 µM	39.5 ± 2.61 µM	–	–	–	–	–	–	–	–	–	–	–
